22 molecules from ChEMBL document CHEMBL3991601, “The target landscape of clinical kinase drugs” (Science, 2017) can be followed below.

For orientation: Kd means the concentration at which binding is half-saturated.

Assay [1] addresses T1, Mitogen-activated protein kinase kinase kinase 6 (Homo sapiens, UniProt O95382).
T1 sequence (O95382 whole entry): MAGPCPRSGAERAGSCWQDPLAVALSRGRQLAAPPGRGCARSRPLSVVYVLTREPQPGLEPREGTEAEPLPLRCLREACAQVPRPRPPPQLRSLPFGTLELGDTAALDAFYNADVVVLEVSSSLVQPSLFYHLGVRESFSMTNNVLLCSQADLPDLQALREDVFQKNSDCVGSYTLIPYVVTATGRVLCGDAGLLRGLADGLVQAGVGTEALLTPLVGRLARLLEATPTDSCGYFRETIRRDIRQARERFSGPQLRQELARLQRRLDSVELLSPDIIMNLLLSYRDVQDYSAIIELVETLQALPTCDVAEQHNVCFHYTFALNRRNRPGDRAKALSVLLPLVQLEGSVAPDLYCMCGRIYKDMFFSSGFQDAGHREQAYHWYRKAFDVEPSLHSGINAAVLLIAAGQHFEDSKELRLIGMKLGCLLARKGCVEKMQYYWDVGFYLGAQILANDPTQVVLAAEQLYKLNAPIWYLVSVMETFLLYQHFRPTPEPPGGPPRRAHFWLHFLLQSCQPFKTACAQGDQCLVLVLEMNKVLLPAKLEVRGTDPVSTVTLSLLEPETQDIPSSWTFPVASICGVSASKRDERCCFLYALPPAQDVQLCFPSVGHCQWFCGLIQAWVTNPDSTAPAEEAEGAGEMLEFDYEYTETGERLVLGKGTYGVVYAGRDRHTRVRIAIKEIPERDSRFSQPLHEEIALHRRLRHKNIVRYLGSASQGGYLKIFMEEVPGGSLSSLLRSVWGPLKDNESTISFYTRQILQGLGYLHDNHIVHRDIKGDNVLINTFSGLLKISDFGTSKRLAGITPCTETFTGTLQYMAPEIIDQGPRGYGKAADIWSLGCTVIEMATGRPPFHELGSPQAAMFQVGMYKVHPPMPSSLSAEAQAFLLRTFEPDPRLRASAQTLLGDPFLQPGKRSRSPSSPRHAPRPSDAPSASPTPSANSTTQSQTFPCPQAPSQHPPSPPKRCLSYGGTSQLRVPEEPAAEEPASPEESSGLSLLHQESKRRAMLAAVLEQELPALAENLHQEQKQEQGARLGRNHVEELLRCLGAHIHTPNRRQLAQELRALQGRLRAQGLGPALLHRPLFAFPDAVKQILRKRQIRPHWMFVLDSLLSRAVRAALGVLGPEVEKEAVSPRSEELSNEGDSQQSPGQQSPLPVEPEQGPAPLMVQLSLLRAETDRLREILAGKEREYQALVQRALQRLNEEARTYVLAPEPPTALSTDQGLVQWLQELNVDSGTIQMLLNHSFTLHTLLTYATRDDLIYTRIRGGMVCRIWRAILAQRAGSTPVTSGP

In assay [2] the target is Serine/threonine-protein kinase 16 (Homo sapiens, UniProt O75716).
For assay [3], the target named is T2, Bone morphogenetic protein receptor type-2 (Homo sapiens, UniProt Q13873).
T2 sequence (Q13873 whole entry): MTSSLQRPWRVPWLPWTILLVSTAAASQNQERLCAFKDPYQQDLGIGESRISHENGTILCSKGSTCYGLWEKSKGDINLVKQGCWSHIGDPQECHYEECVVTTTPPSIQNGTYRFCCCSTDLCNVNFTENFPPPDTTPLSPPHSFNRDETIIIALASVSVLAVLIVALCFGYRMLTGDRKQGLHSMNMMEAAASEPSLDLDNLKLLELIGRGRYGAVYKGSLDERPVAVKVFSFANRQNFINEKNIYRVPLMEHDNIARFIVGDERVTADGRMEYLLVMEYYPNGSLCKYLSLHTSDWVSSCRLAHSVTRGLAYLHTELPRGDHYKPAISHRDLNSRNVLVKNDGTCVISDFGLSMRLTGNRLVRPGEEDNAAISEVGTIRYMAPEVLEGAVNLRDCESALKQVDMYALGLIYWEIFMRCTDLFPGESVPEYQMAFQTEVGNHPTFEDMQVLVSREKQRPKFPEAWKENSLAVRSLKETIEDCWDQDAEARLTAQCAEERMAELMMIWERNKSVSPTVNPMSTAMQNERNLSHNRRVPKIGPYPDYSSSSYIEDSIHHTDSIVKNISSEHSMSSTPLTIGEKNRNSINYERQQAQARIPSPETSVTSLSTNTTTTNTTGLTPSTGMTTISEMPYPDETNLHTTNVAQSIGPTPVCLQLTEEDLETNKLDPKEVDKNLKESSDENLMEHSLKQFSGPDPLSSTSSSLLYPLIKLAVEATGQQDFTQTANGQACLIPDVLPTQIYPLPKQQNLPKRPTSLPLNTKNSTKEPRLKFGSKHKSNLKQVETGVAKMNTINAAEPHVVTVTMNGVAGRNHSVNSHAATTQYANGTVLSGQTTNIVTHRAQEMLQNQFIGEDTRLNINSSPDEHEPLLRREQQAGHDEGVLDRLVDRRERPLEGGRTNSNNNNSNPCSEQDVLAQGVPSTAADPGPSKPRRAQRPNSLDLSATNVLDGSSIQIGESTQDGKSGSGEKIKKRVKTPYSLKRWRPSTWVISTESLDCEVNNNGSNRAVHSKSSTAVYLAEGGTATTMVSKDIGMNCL

Assay [4] deals with T3, MAP/microtubule affinity-regulating kinase 4 (Homo sapiens, UniProt Q96L34).
T3 sequence (Q96L34 whole entry): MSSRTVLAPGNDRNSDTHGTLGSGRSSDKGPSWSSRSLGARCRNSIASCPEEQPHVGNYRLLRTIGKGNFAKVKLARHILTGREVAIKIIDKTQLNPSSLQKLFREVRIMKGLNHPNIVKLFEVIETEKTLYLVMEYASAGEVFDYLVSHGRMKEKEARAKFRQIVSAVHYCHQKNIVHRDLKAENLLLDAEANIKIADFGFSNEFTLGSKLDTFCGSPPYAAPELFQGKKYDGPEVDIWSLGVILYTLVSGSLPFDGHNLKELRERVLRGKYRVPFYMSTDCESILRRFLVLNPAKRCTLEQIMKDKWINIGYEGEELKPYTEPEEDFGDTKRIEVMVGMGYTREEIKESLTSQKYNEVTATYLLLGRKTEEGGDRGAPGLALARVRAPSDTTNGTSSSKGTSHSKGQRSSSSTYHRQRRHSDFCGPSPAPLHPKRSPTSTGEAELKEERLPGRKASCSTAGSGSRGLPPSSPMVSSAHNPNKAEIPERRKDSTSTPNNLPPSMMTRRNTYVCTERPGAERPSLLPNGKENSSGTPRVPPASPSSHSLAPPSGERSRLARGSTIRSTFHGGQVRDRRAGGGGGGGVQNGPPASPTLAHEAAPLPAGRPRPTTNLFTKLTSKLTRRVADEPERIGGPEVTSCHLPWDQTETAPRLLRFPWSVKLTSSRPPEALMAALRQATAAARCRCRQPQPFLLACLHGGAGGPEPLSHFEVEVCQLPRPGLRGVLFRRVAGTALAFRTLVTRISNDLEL

Each structure is given as a SMILES string. Active and inactive are the calls of the source. For most assays here, no stated cut-off is given here; in the data, actives have a measured Kd and inactives only a lower limit.

Serine/threonine-protein kinase 16, sequence (O75716 whole entry): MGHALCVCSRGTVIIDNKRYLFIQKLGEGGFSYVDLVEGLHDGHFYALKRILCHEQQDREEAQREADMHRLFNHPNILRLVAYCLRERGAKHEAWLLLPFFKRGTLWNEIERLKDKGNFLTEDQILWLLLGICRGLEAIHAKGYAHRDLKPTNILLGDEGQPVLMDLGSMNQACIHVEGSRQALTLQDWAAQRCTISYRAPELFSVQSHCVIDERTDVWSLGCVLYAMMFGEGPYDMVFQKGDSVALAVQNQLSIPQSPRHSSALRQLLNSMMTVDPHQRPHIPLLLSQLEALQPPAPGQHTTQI

Regarding `C[C@@H](Oc1cc(C(=O)Nc2ccc(C(=O)N3CCN(C)CC3)cc2)nnc1N)c1c(Cl)ccc(F)c1Cl`, the Kd in assay [1], in assay [2] and in assay [3] was > 30 µM (inactive) throughout.

Regarding `C[C@H]1CNCCCN1S(=O)(=O)c1cccc2cncc(F)c12`, the Kd in assay [1], in assay [2] and in assay [3] was > 30 µM (inactive) in each case.

Consider `CC(=O)c1cnc2ccc(-c3cc(Cl)c(O)c(Cl)c3)nc2c1N[C@H]1CC[C@H](CN(C)C)CC1`, for which the Kd in assay [1] was 1.91 µM (active); in assay [3] it was > 30 µM (inactive).

As to `CCNC(=O)C#Cc1ccc2c(c1)NC(=O)/C2=C(\Nc1ccc(CN(C)C)cc1)c1ccccc1`, the Kd in assay [4], in assay [1], in assay [2] and in assay [3] was > 30 µM (inactive) each time.

As to `C=CC(=O)N1CCC[C@H](n2c(=O)n(-c3ccc(Oc4ccccc4)cc3)c3c(N)ncnc32)C1`, the Kd in assay [4], in assay [1], in assay [2] and in assay [3] was > 30 µM (inactive) each time.

Regarding `Cc1nc2cc(-c3nn(C(C)C)c4ncnc(N)c34)ccc2o1`, the Kd in assay [4] was > 30 µM (inactive); in assay [1], > 30 µM (inactive); in assay [2], 2.01 µM (active); in assay [3] it was > 30 µM (inactive).

Turning to `COCc1c(-c2ccc(NC(=O)Nc3cc(C(F)(F)F)ccc3F)c(F)c2)c2c(N)ncnn2c1CN1CCOCC1`, the Kd in assay [4], in assay [1], in assay [2] and in assay [3] was > 30 µM (inactive) each time.

Turning to `Nc1ncnc2c1c(-c1cccc(OCc3ccccc3)c1)cn2[C@H]1C[C@@H](CN2CCC2)C1` [AEW-541], the Kd in assay [4], in assay [1], in assay [2] and in assay [3] was > 30 µM (inactive) in each case.

On to `COc1cc(Nc2ncc3c(n2)-c2ccc(Cl)cc2C(c2c(F)cccc2OC)=NC3)ccc1C(=O)O` [ALISERTIB], for which the Kd in assay [4], in assay [1], in assay [2] and in assay [3] was > 30 µM (inactive) throughout.

As to `Cc1nc(NC(=O)N2CCC[C@H]2C(N)=O)sc1-c1ccnc(C(C)(C)C(F)(F)F)c1` [ALPELISIB], the Kd in assay [1], in assay [2] and in assay [3] was > 30 µM (inactive) throughout.

On to `Cc1csc(-c2nnc(Nc3ccc(Oc4ncccc4-c4ccnc(N)n4)cc3)c3ccccc23)c1` [AMG-900], for which the Kd in assay [4], in assay [1], in assay [2] and in assay [3] was > 30 µM (inactive) each time.

In the case of `O=C(Nc1c[nH]nc1-c1nc2cc(CN3CCOCC3)ccc2[nH]1)NC1CC1` [AT-9283], the values for the Kd in assay [1], in assay [2] and in assay [3] were > 30 µM (inactive), 1.28 µM (active) and 0.043 µM (active), respectively.

Consider `COc1cc([C@@H]2c3cc4c(cc3[C@H](O)[C@H]3COC(=O)[C@@H]23)OCO4)cc(OC)c1OC` [AXL-1717], for which the Kd in assay [1], in assay [2] and in assay [3] was > 30 µM (inactive) throughout.

Take `Cc1cccc(-c2nn3c(c2-c2ccnc4ccc(C(N)=O)cc24)CCC3)n1` [GALUNISERTIB]: the Kd in assay [1], in assay [2] and in assay [3] was > 30 µM (inactive) throughout.

`O=C(Nc1cc(C(F)(F)F)cc(C(F)(F)F)c1)c1cc(Cl)ccc1O` [IMD-0354]: the Kd in assay [1], in assay [2] and in assay [3] was > 30 µM (inactive) in each case.

For `CN(C[C@@H]1COCCO1)S(=O)(=O)Nc1ccc2ccc3ncc(-c4cnn(C)c4)cc3c(=O)c2c1` [MK-2461], the Kd in assay [1], in assay [2] and in assay [3] was > 30 µM (inactive) throughout.

In the case of `Cc1[nH]c(/C=C2\C(=O)Nc3ccccc32)c(C)c1CCC(=O)O` [ORANTINIB], the Kd is > 30 µM (inactive) in assay [1] and 0.019 µM (active) in assay [3].

Take `CCCCCCCCCCCCCCCCCCOP(=O)([O-])OC1CC[N+](C)(C)CC1` [PERIFOSINE]: the Kd in assay [1], in assay [2] and in assay [3] was > 30 µM (inactive) each time.

`CC(=O)NCC(=O)N1[C@@H]2CC[C@H]1c1ccc(Nc3ncc(C(F)(F)F)c(NC4CCC4)n3)cc12` [PF-03814735]: the Kd in assay [4] was 0.009 µM (active); in assay [1], 1.06 µM (active); in assay [3], 0.008 µM.

On to `CNC(=O)c1cc(Oc2ccc(NC(=O)Nc3cc(C(C)(C)C)nn3-c3ccc4ncccc4c3)c(F)c2)ccn1` [REBASTINIB], for which the Kd in assay [4], in assay [1] and in assay [3] was > 30 µM (inactive) in each case.

For `Cn1ncc(Cl)c1-c1cc(C(=O)N[C@H](CN)Cc2ccc(F)c(F)c2)oc1Cl` [UPROSERTIB], the Kd in assay [1], in assay [2] and in assay [3] was > 30 µM (inactive) throughout.

For the molecule `CN1C/C=C/CCOc2cccc(c2)-c2ccnc(n2)Nc2cccc(c2)C1` [ZOTIRACICLIB], the Kd in assay [1], in assay [2] and in assay [3] was > 30 µM (inactive) throughout.
